Earlier results as cited in article PMC10017685 (Nature Communications, 2023).

Test system: human erythrocytes
Design: method as in DBAASP
Details: cited from earlier work
In the case of GFCWRACVYRNGVRVCYRRCN [DBAASP_17226], the “Class (dedicated toxicity dataset used for toxicity classifier evaluation)” value (“Class” below) is listed as 0. For GILKSLLKKLKKIIAK [DBAASP_8908], the “Class” value is given as 0.

Same assay, conditions: toxicity class label 1 or 0, meaning of the labels not given; DBAASP HC50 data, human erythrocytes; ref DBAASP; cited from earlier work
For FLPIVTNLLSGLL [DBAASP_2205], the “Class” value is listed as 0. For FLPKILKVAAK [DBAASP_16465], the “Class” value is listed as 0. In the case of FLPKWALKWAAK [DBAASP_16468], the “Class” value is given as 0. In the case of FLPLIAGVAANFLPKIFCLISKKC [DBAASP_6168], the “Class” value is given as 1. In the case of FLPLIAGVAASILPKIFCFITKKC [DBAASP_6170], the “Class” value is given as 1. In the case of FLPLIASLAANFVPKIFCKITKKC [DBAASP_3563], the “Class” value is given as 0. For FLPLIASVAANLVPKIFCKITKKC [DBAASP_3564], the “Class” value is listed as 0. For FLPLILPSIVTALSSFLKQG [DBAASP_8197], the “Class” value is given as 0. For FLPLKKLRFGLL [DBAASP_5722], the “Class” value is given as 0. In the case of FLPLLASLFSRLF [DBAASP_4935], the “Class” value is listed as 1. In the case of FLPLLLAGLPKLLCLFFKKC [DBAASP_1470], the “Class” value is listed as 1. For FLPLVTMLLGKLF [DBAASP_3105], the “Class” value is given as 1. For FLPMLAGLAANFLPKIVCKITKKC [DBAASP_1892], the “Class” value is given as 1. For FLPVIASVAAKVLPKVFCFITKKC [DBAASP_6169], the “Class” value is given as 1. For FLQGIIDTVGKWL [DBAASP_18165], the “Class” value is given as 0. For FLQGIWDTVGKWL [DBAASP_18166], the “Class” value is given as 0. For FLQHIIGALGHLF [DBAASP_10244], the “Class” value is listed as 0. For FLQHIIGALSHFF [DBAASP_10247], the “Class” value is listed as 0. In the case of FLQHIIGALTHIF [DBAASP_10246], the “Class” value is listed as 0. For FLRFAGSVIHGAGHLVHHIGVAL [DBAASP_11350], the “Class” value is given as 0. In the case of FLRFIGSVIHGIGHLVHHIGVAL [DBAASP_4193], the “Class” value is given as 0. For FLSAITSILGKFF [DBAASP_13350], the “Class” value is given as 0. In the case of FLSAITSLLGKLL [DBAASP_4212], the “Class” value is given as 0. For FLSALWGVAKSLF [DBAASP_18190], the “Class” value is listed as 0. In the case of FLSGIVGMLGKLF [DBAASP_2204], the “Class” value is given as 1. For FLSIIAKVLGSLF [DBAASP_3104], the “Class” value is listed as 1. For FLSKIWDGVKSLL [DBAASP_18168], the “Class” value is listed as 0. In the case of FLSLALAALPKFLCLVFKKC [DBAASP_1468], the “Class” value is listed as 1. For FLSLIPAAISAVSALANHF [DBAASP_10851], the “Class” value is listed as 0. For FLSLIPHIASGIASLVKNF [DBAASP_12390], the “Class” value is listed as 1. In the case of FLSLIPHIVSGVAALANHL [DBAASP_12391], the “Class” value is given as 0. In the case of FLSLIPHIVSGVASIAKHF [DBAASP_3889], the “Class” value is given as 0. For FLSLIPKAISAISALANHF [DBAASP_12627], the “Class” value is listed as 0. For FLSLIPKAISAISALINHF [DBAASP_12628], the “Class” value is given as 1. For FLSLIPKAISAVSALANHF [DBAASP_12626], the “Class” value is listed as 0. In the case of FLSLIPKIAGGIAALAKHL [DBAASP_10835], the “Class” value is given as 1. In the case of FLSLIPKIATGIAALAKHL [DBAASP_10833], the “Class” value is given as 1. For FLSLIPKIISAISALIKHF [DBAASP_12630], the “Class” value is listed as 1. For FLSLIPKIISAISALINHF [DBAASP_12629], the “Class” value is given as 1. In the case of FLSLLPHIASGIASLVSKF [DBAASP_12382], the “Class” value is listed as 1. In the case of FLSSIGKILGNLL [DBAASP_3103], the “Class” value is given as 0. For FLSTALKVAANVVPTLFCKITKKC [DBAASP_1888], the “Class” value is listed as 0. In the case of FLSTLLNVASKVVPTLFCKITKKC [DBAASP_1891], the “Class” value is listed as 0. For FLSTLLNVASNVVPTLICKITKKC [DBAASP_1890], the “Class” value is listed as 1. For FLWALFKVASK [DBAASP_646], the “Class” value is listed as 0. In the case of FPFLLSLIPSAISALKKL [DBAASP_18191], the “Class” value is given as 0. For FPLTWLKWWKWKK [DBAASP_17184], the “Class” value is listed as 0. In the case of FPVTFRFFKFFKG [DBAASP_9715], the “Class” value is listed as 0. In the case of FPVTWGWWKWWKG [DBAASP_9714], the “Class” value is given as 0. In the case of FPVTWKWWKWWKG [DBAASP_7114], the “Class” value is given as 0. In the case of FPVTWPTKWLKG [DBAASP_9721], the “Class” value is listed as 0. In the case of FPVTWPTKWRKG [DBAASP_9717], the “Class” value is given as 0. For FPVTWPTKWWEG [DBAASP_9720], the “Class” value is given as 0. In the case of FPVTWPTKWWKG [DBAASP_7115], the “Class” value is given as 0. In the case of FPVTWPTKWWKS [DBAASP_9716], the “Class” value is given as 0. In the case of FPVTWRWWKWWKG [DBAASP_716], the “Class” value is given as 0. In the case of FVDLKKIANIINSIF [DBAASP_6701], the “Class” value is listed as 0. In the case of FWGALAKGALKLIPSLFSSFSKKD [DBAASP_948], the “Class” value is given as 1. In the case of FWGFLGKLAMKAVPSLIGGNKK [DBAASP_8440], the “Class” value is given as 0. For FWGFLGKLAMKAVPSLIGGNKSSSK [DBAASP_8439], the “Class” value is given as 0. For FWGKLWEGVKNAI [DBAASP_3480], the “Class” value is given as 0. In the case of FWSTIWNAAKSLI [DBAASP_18164], the “Class” value is given as 1. For FWSTLLSIGKSLL [DBAASP_18163], the “Class” value is listed as 1. For GFGMALKLLKKVL [DBAASP_3442], the “Class” value is given as 0. In the case of GFGSLLGKALRLGANVL [DBAASP_3772], the “Class” value is listed as 0. In the case of GFKDLLKGAAKALKKTVLF [DBAASP_4908], the “Class” value is listed as 0. For GFKDLLKGAAKALVKAVLF [DBAASP_4918], the “Class” value is given as 1. In the case of GFKDLLKGAAKALVKTVKF [DBAASP_4910], the “Class” value is given as 0. For GFKDLLKGAAKALVKTVLF [DBAASP_2302], the “Class” value is listed as 0. For GFKDLLKGAAKALVKTVLK [DBAASP_11235], the “Class” value is given as 0. In the case of GFKDLLKGAKKALVKTVLF [DBAASP_4907], the “Class” value is given as 0. In the case of GFKDLLKKAAKALVKTVLF [DBAASP_4906], the “Class” value is listed as 1. For GFKKLLKGAAKALVKTVLF [DBAASP_4900], the “Class” value is listed as 1. For GFKRIVQKIRDFLRNLV [DBAASP_11852], the “Class” value is given as 0. In the case of GFKRIVQRIKDFLRNLV [DBAASP_6070], the “Class” value is given as 0. For GFLGSLLKTGLKVGSNLL [DBAASP_2293], the “Class” value is listed as 0. For GFMSKVANFAKKFAKGGVNAIMNQK [DBAASP_5718], the “Class” value is listed as 0. In the case of GFRDVLKGAAKAFVKTVAGHIAN [DBAASP_2304], the “Class” value is given as 0. In the case of GFRKIVQKIRDFLRNLV [DBAASP_11853], the “Class” value is listed as 0. For GFWGKLFKLGLHGIGLLHLHL [DBAASP_999], the “Class” value is listed as 0. For GFWGKLWEGVKNAI [DBAASP_3479], the “Class” value is listed as 1. In the case of GIFDVLKNLAKGVITSLAS [DBAASP_16392], the “Class” value is given as 0. For “GIGGALLSFGKSALKGLAKGLAEHF [DBAASP_12131]”, the “Class” value is listed as 0. For GIGKFLHSAKKFGKAFVGEIMNS [DBAASP_5368], the “Class” value is given as 0. For GIGKFLKKAKKFGKAFVKILKK [DBAASP_763], the “Class” value is listed as 0. In the case of GIGKHVGKALKGLKGLLKGLGEC [DBAASP_6804], the “Class” value is listed as 0. For GIGKHVGKALKGLKGLLKGLGES [DBAASP_3359], the “Class” value is given as 0. In the case of GIIKKIIKKIIKK [DBAASP_13882], the “Class” value is given as 0. In the case of GIIKKIIKKIIKKI [DBAASP_4594], the “Class” value is listed as 0. In the case of GIKDLLKGAAKALVKTVLF [DBAASP_11234], the “Class” value is listed as 0. For GIKDLLKGAAKALVKTVLK [DBAASP_11236], the “Class” value is listed as 0. For GIKDWIKGAAKKLIKTVASHIANQ [DBAASP_2305], the “Class” value is listed as 0. In the case of GIKEFAHSLGKFGKAFVGGILNQ [DBAASP_3817], the “Class” value is given as 0. In the case of GIKKWVKGVAKGVAKDLAKKIL [DBAASP_11866], the “Class” value is listed as 0. For GILGKLWEGVKSIF [DBAASP_8864], the “Class” value is given as 0. For GILKTIKSIASKLKRKAK [DBAASP_5476], the “Class” value is listed as 0. For GILNTIKSIASKLKRKAK [DBAASP_5477], the “Class” value is listed as 0.
